Experimental data published in patent US10517870B2, “Aryl substituted bicycle heteroaryl compounds” (Bristol-Myers Squibb Company, priority 2015, dated 2019).
Like-named read-outs stand apart in the source and are kept apart here.

Legend:
[1] = molecular target: T1, PAR4 (Homo sapiens, UniProt Q96RI0); test: PAR4 FLIPR assay (calcium mobilization, antagonist activity) in PAR4-expressing HEK293 cells; format: cell-based
T1 construct: expressed in transfected cells; host or cells: HEK293 PAR4 Clone 1.2A
T1 sequence (Q96RI0 18-385): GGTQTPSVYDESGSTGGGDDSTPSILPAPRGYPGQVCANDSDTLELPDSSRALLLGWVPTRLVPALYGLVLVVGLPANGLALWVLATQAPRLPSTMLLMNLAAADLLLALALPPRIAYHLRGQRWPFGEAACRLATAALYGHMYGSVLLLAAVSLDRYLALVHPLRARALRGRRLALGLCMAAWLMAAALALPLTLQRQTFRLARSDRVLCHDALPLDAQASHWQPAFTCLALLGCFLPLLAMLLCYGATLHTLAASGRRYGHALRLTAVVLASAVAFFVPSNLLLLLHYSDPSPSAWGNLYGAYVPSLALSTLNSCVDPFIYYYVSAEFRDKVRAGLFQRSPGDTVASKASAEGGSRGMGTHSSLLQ
Description: The FLIPR assay is an exemplary in vitro assay for measuring the activity of the PAR4 antagonists of the present invention. In this assay, intracellular calcium mobilization is induced in PAR4 expressing cells by a PAR4 agonist and calcium mobilization is monitored.
HEK293 cells stably expressing PAR4 were generated by a standard method of transfection of human PAR4 (F2R23) cDNA expression vector and selected based on PAR4 protein expression or mRNA expression. […] These cells also express endogenous PAR1 and can elicit calcium signal upon stimulation with PAR1 agonist peptide. Therefore, the same cells were also used to determine selectivity against PAR1 and agonist activity for both receptors. Cells from HEK293 PAR4 Clone 1.2A (BMS Arctic ID 383940) were propagated and used for calcium mobilization studies.
FLIPR-based calcium mobilization assay in HEK293 cells was used to measure PAR4 antagonism, agonism, and selectivity against PAR1. The activity of the PAR4 antagonists of the present invention were tested in PAR4 expressing cells by monitoring H-Ala-Phe(4-F)-[…]NH2-induced intracellular calcium mobilization. Counter screens for agonist activity and PAR1 antagonist activity were also performed. Briefly, PAR1/PAR4-expressing HEK293 cells were grown in DMEM (Life Technology, Grand Island, N.Y.) containing 10% heat-inactivated FBS, 1% Penicillin-Streptomycin, 10 μg/mL blasticidin, and 100 μg/mL Zeocin at 37° C. with 5% CO2. Cells were plated overnight prior to the experiment in a black 384-well Purecoat Amine clear bottom plate (Becton Dickinson Biosciences, San Jose, Calif.) at 10,000 cells/well in 30 μL growth medium and incubated in a humidified chamber at 37° C. with 5% CO2 overnight. Prior to compound addition, the cell medium was replaced with 40 μL of IX calcium and magnesium-containing Hank's Balanced Saline Solution (HBSS) (with 20 mM HEPES) and 1:1000 diluted fluorescent calcium indicator (Codex Biosolutions, Gaithersburg, Md.). After a 30 minute incubation period at 37° C., and a further 30 minute incubation and equilibration period at room temperature, 20 μL test compound (diluted in 1×HBSS buffer) was added at various concentrations at 0.17% dimethyl sulfoxide (DMSO) final concentration. Changes in fluorescence intensity were measured using a Functional Drug Screening System (FDSS, Hamamatsu, Japan) to determine agonist activities. The cells were then incubated for 30 minutes at room temperature followed by addition of 20 μL of agonist peptide for antagonist activity measurement. […] Compound potency was derived from 11-point concentration-response curves.

[2] = tested on: Caski (HPV16+) cells; test: Cell proliferation/viability assay, Caski cells; format: cell-based; details: Homo sapiens, Ca-Ski, 96 h, 4 days
Experimental: (§1) Caski (catalog number CRL-1550), SiHa (catalog number HTB-35), C33A (catalog number HTB-31), Saos-2 (ATCC HTB-85), and Hela (catalog number CCL-2) cells were obtained from the American Type Culture Collection (ATCC). The human cervical carcinoma cell lines Caski. SiHa, Hela and C33A, and the human osteosarcoma cell line Saos-2, and the human keratinocyte cell line HaCaT were cultured in Dulbecco's Modified Eagle Medium (DMEM, Invitrogen catalog number 11965-092) supplemented with 10% fetal bovine serum. The colorectal carcinoma cell line HCT-116 was cultured in Roswell Park Memorial Institute-1640 Medium (Invitrogen catalog number 11875-093) supplemented with 10% FBS. All cells were incubated at 37° C. in a humidified atmosphere with 5% CO2 in air. To establish the SCHPV-18 cell line, one million primary neonatal human foreskin keratinocytes (Invitrogen, catalog no. C-001-5C), cultured in KBM Gold-keratinocvte cell basal medium (Lonza, catalog no. 192060), were electroporated with 5 μg HPV-18 plasmid DNA (ATCC catalog no. 45152D) using the Amaxa Nucleofector II on setting T-007. Cells were co-transfected with 2 μg plasmid pZSGreen1-N1 (Clontech catalog no. 632448) encoding G418 resistance, and cells were selected for four days in 100 μg/ml G418, after which selection was removed. Cells were maintained in culture six months prior to compound testing. Integration of the HPV 18 genome was confirmed by Southern blot. Control cells transfected in parallel with pZSGreen1-N1 alone became senescent four days after selection and the culture could not be expanded. SCHPV-18 cells were maintained in E medium (Fehrmann F, Laimins L A. Human papillomavirus type 31 life cycle: methods for study using tissue culture models. Methods Mol Biol 2005; 292:317-330).
(§2) For proliferation assays, cells were plated in white polystyrene 96-well plates (Costar catalog number 3917) for CellTiter Glo viability assays or 96-well special optics plates (Costar cat #3614) for CellTiter Blue viability assays. Cells were plated in the appropriate growth medium without antibiotics. Two hours after cell plating, a 200× compound stock diluted in DMSO was added to a final concentration of 0.5%. Plates were incubated at 37° C., for 4 days and then cell viability was assessed using either CellTiter Blue (Promega catalog number G8081) or CellTiter Glo (Promega catalog number G7572) according to the manufacturer's instructions. For the CellTiter Blue viability assay, data was collected using the SpectraMax Gemini EM (Molecular Devices) with an excitation wavelength of 530 nm and emission wavelength of 590 nm. For the CellTiter Glo viability assay, data was collected using the Envision Mulitlabel Reader (Perkin Elmer catalog number 2104-0010). To calculate IC50 and EC50 values, percent inhibition curves were fit using a four-parameter logistic formula [y=A+[…]], where A and B denote minimal and maximal % inhibition, respectively, C is the IC50 value, D is the Hill slope, and x represents compound concentration.
(§3) Table C, below, sets out the results obtained employing various compounds of the invention tested for their effects on proliferation of such cells. Caski or SiHa cells, transformed by HPV 16, Hela cells, transformed by HPV 18, or HPV-negative control cell lines (Saos-2 or C33a) were treated with various compounds. […] Unlike the HPV-negative Saos-2 or C33a cell lines, the HPV-transformed cell lines rely on the presence of HPV for their continued proliferation. Therefore, a comparison of IC50 values from HPV-transformed cell lines with IC50 values obtained from HPV-negative cell lines can be used to test for compound selectivity.

[3] = tested on: HeLa (HPV18+) cells; test: Cell proliferation/viability assay, HeLa cells; format: cell-based; details: Homo sapiens, 96 h, 4 days
Experimental: as §1, §2, §3

[4] = tested on: SiHa (HPV16+) cells; test: Cell proliferation/viability assay, SiHa cells; format: cell-based; details: Homo sapiens, 96 h, 4 days
Experimental: as §1, §2, §3

[5] = tested on: Saos-2 (HPV−) cells; test: Cell proliferation/viability assay, Saos-2 cells; format: cell-based; details: Homo sapiens
Experimental: as §1, §2, §3

[6] = tested on: C33A (HPV−) cells; test: Cell proliferation/viability assay, C33A cells; format: cell-based; details: Homo sapiens, C-33-A, 96 h
Experimental: as §1, §2, §3

[7] = tested on: Caspase-3/-7 activity; test: Apoptosis assay (Caspase-Glo 3/7) in HPV-transformed and HPV-negative cell lines; format: cell-based, human
Experimental: Apoptosis is a cellular process in which a cascade of events, controlled by proteolytic cleavage events, results in chromatin condensation, blebbing of the cell membrane, fragmentation of cellular DNA, and cell death. Caspases 3 and 7 are enzymes which control initiation of the later stages of apoptosis. Caspase-3/-7 activity can therefore be used as a measure of induction of apoptosis in response to compound treatment. For caspase-3/7 activity assays, cells were plated in 96-well plates (Costar catalog no. 3917) in DMEM with 10% FBS two hours before compound treatment. Cells were treated with compounds in a final concentration of 0.5% DMSO, then the Caspase-Glo 3/7 Assay (Promega catalog no. G8090) was performed according to manufacturer's instructions. […] Luminescence was measured using the EnVision Multilabel Reader (Perkin Elmer catalog no. 2104-0010) with aperture diameter 6 mm, height 4.2 mm, and measurement time of 0.1 second per well.
Example 15 was tested in an apoptosis assay using three HPV-transformed cell lines (Caski, SiHa, and SCHPV-18) and four HPV-negative cell lines (HCT-116, HaCat, C33a, and Saos-2). The cell lines were treated with a range of concentrations of the compound and induction of Caspase-3/-7 activity was measured relative to vehicle (DMSO)-treated controls.

[8] = SAOS-2, 96 h, read-out: Saos-2 (HPV−) Proliferation IC50 (μM)
[9] = read-out: C33A (HPV−) Proliferation IC50 (μM)

Compound	IC50 [1]	IC50 [2]	IC50 [3]	IC50 [4]	IC50 [5, 8]	IC50 [6, 9]	IC50 ([5]; 96 h, Saos-2, HPV-negative, 4 days, read-out: Saos-2 (HPV−) Proliferation IC50)	IC50 ([6]; C33A, HPV-negative, 4 days, read-out: C33A (HPV−) Proliferation IC50)	increase in Caspase-3/-7 activity ([7]; HPV-positive cell lines (Caski, SiHa, SCHPV-18), relative to vehicle (DMSO)-treated controls)	induction of apoptosis ([7]; HPV-positive versus HPV-negative cell lines (HCT-116, HaCat, C33a, Saos-2))
C#Cc1cc(-c2ccc(OC)cc2)c2ncc(OC(F)F)nc2c1 [Example 5, 2-(difluoromethoxy)-7-ethynyl-5-(4-methoxyphenyl)quinoxaline]	0.25 µM	3.4 µM	3.3 µM	4.5 µM	53.1 µM	42.3 µM	–	–	–	–
Cc1cc(-c2ccc(C(F)(F)F)cc2)c2ncc(OC(F)F)nc2c1 [Example 19]	0.8 µM	14.6 µM	29.9 µM	20.5 µM	> 100 µM	> 100 µM	–	–	–	–
Cc1cc(-c2ccc(F)c(F)c2)c2ncc(OC(F)F)nc2c1 [Example 22, 2-(difluoromethoxy)-5-(3,4-difluorophenyl)-7-methylquinoxaline]	1 µM	15.9 µM	16.9 µM	12.6 µM	70.6 µM	94.4 µM	–	–	–	–
Cc1cc(-c2ccc(OC(F)(F)F)cc2)c2ncc(OC(F)F)nc2c1 [Example 20, 2-(difluoromethoxy)-7-methyl-5-(4-(trifluoromethoxy)phenyl)quinoxaline]	1.2 µM	16.4 µM	45.1 µM	22.1 µM	> 100 µM	83.5 µM	–	–	–	–
COc1ccc(-c2cc(C#N)cc3nc(OC(F)F)cnc23)cc1 [Example 1, 3-(difluoromethoxy)-8-(4-methoxyphenyl)quinoxaline-6-carbonitrile]	1.9 µM	2.3 µM	1.5 µM	1.7 µM	7.7 µM	6.9 µM	–	–	–	–
COc1ccc(-c2cc(C(F)(F)F)cc3nc(OC(F)F)cnc23)cc1Br [Example 15, 5-(3-bromo-4-methoxyphenyl)-2-(difluoromethoxy)-7-(trifluoromethyl)quinoxaline]	–	16.5 µM	18.2 µM	12.9 µM	–	–	> 99.5 µM	> 99.5 µM	greater than 10 fold	selectively induced apoptosis in HPV-positive cell lines
COc1ccc(-c2cc(Cl)cc3nc(OC(F)F)cnc23)cc1 [Example 2, 7-Chloro-2-(difluoromethoxy)-5-(4-methoxyphenyl)quinoxaline]	2.1 µM	10 µM	9.3 µM	8 µM	> 100 µM	54 µM	–	–	–	–
Cc1cc(-c2ccc(Cl)c(Cl)c2)c2ncc(OC(F)F)nc2c1 [Example 24, 5-(3,4-dichlorophenyl)-2-(difluoromethoxy)-7-methylquinoxaline]	3.3 µM	12.8 µM	12.7 µM	8.9 µM	> 100 µM	89.4 µM	–	–	–	–
Cc1cc(-c2ccc(Cl)cc2Cl)c2ncc(OC(F)F)nc2c1 [Example 23, 5-(2,4-dichlorophenyl)-2-(difluoromethoxy)-7-methylquinoxaline]	0.012 µM	12.9 µM	10.9 µM	9.3 µM	> 100 µM	79.7 µM	–	–	–	–
Cc1cc(-c2cccc(Cl)c2)c2ncc(OC(F)F)nc2c1 [Example 18, 5-(3-chlorophenyl)-2-(difluoromethoxy)-7-methylquinoxaline]	1.4 µM	13.9 µM	13.2 µM	11.6 µM	> 100 µM	> 100 µM	–	–	–	–
COc1ccc(-c2cc(C(F)(F)F)cc3nc(OC(F)F)cnc23)cc1 [Example 8, 2-(difluoromethoxy)-5-(4-methoxyphenyl)-7-(trifluoromethyl)quinoxaline]	1.5 µM	2.5 µM	2.3 µM	4.3 µM	58.3 µM	> 99.5 µM	–	–	–	–
